Assay results: patent US20110039819A1, “SUBSTITUTED PHENOXYBENZAMIDES” (priority 2008, published 2011)

Target: T1, MEK1 (Homo sapiens, UniProt Q02750)
T1 construct: purchased Millipore 14-420 (GST-MEK1); 14-703 (Cot1); host or cells: Cot1: insect cells (SF21)
Experiment: MEK1 activation kinase assay (Assay 2, HTRF; Cot1 phosphorylates GST-MEK1)
Assay type: biochemical
Details: mean values from 2 or more measurements; read-out: Assay 2 IC50 values (nanomolar) (MEK1 activation kinase assay) (values are mean values from 2 or more measurements)
Description: MEK1 Activation Kinase Assay
The kinase Cot1 activates MEK1 by phosphorylating its activation loop. The inhibitory activity of compounds of the present invention on this activation of MEK1 was quantified employing the HTRF assay described in the following paragraphs.
As substrate for the kinase reaction the unactive C-terminally His6-tagged GST-MEK1 fusion protein (Millipore cat. no 14-420) was used.
Then the kinase reaction was started by the addition of 2 μl of a solution of Cot1 in assay buffer and the resulting mixture was incubated for a reaction time of 20 min at 22° C. The concentration of Cot1 in the assay was adjusted depending of the activity of the enzyme lot and was chosen appropriate to have the assay in the linear range, typical enzyme concentrations were in the range of about 2 ng/μl (final conc. in the 5 μl assay volume).
The resulting mixture was incubated 2 h at 22° C. to allow the binding of the phosphorylated GST-MEK1 to the anti-GST-XL665 and the Eu-cryptate labelled anti-phospho-MEK 1/2 antibody. Subsequently the amount of Ser217/Ser221-phosphorylated substrate was evaluated by measurement of the resonance energy transfer from the Eu-Cryptate-labelled anti-phospho-MEK antibody to the anti-GST-XL665.

T1 sequence (Q02750 whole entry): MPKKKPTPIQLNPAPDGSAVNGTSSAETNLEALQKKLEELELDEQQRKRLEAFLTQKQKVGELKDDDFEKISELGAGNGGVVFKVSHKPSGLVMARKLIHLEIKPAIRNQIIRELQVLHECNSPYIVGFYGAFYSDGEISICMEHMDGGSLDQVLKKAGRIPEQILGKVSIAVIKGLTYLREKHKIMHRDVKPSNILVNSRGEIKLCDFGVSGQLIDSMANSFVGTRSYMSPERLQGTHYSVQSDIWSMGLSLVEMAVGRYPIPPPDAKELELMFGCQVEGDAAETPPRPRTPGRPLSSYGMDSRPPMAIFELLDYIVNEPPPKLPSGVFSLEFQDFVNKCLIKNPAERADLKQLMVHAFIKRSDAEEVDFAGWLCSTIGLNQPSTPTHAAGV

Row | IC50 [nM] | Compound
1 | 29.5 | CC(C)(O)C(O)CCOc1cc(F)cc(Nc2ccc(I)cc2F)c1C(N)=O (single isomer, unassigned) [Example 6.4, 2-(3,4-Dihydroxy-4-methyl-pentyloxy)-4-fluoro-6-(2-fluoro-4-iodo-phenylamino)-benzamide]
2 | 46.7 | C#Cc1ccc(Nc2cc(F)cc(Oc3cccc(NS(=O)(=O)NCCC)c3)c2C(N)=O)c(F)c1 [Example 7.3, 2-[3-[[(propylamino)sulfonyl]amino]phenoxy]-4-fluoro-6-[(4-ethynyl-2-fluorophenyl)amino]-benzamide]

More lines, now with the values behind:

Row | Compound | IC50 [nM]
3 | NC(=O)c1c(Nc2ccc(I)cc2F)cc(F)cc1Oc1cccc(NS(=O)(=O)c2c[nH]cn2)c1 [Example 5.49, 4-Fluoro-2-(2-fluoro-4-iodo-phenylamino)-6-[3-(1H-imidazole-4-sulfonylamino)-phenoxy]-benzamide] | 15.7
4 | NC(=O)c1c(Nc2ccc(I)cc2F)cc(F)cc1Oc1cncc(NS(=O)(=O)c2c[nH]cn2)c1 [Example 5.93, 4-Fluoro-2-(2-fluoro-4-iodo-phenylamino)-6-[5-(1H-imidazole-4-sulfonylamino)-pyridin-3-yloxy]-benzamide] | 86
5 | CN(C)S(=O)(=O)Nc1cccc(Oc2cc(F)cc(Nc3ccc(I)cc3F)c2C(=O)NCCO)c1 [Example 4.18, 2-[3-[[(dimethylamino)sulfonyl]amino]phenoxy]--4-fluoro-6-[(2-fluoro-4-iodophenyl)amino]-N-(2-hydroxy-ethyl)-benzamide] | 69.9
6 | NC(=O)c1c(Nc2ccc(I)cc2F)cc(F)cc1Oc1cccc(NC(=O)c2cc[nH]n2)c1 [Example 5.81, 1H-Pyrazole-3-carboxylic acid {3-[2-carbamoyl-5-fluoro-3-(2-fluoro-4-iodo-phenylamino)-phenoxy]-phenyl}-amide] | 96.4
7 | C[C@H](O)CNC(=O)c1c(Nc2ccc(I)cc2F)cc(F)cc1Oc1cccc(NS(=O)(=O)N(C)C)c1 [Example 4.23, 2-[3-[[(dimethylamino)sulfonyl]amino]phenoxy]--4-fluoro-6-[(2-fluoro-4-iodophenyl)amino]-N-((S)-2-hydroxy-propyl)-benzamide] | 132
8 | NC(=O)c1c(Nc2ccc(I)cc2F)cc(F)cc1Oc1cccc(NS(N)(=O)=O)c1 [Example 5.7, 2-[3-[[(amino)sulfonyl]amino]phenoxy]-4-fluoro-6-[(2-fluoro-4-iodophenyl)amino]-benzamide] | 18.5
9 | NC(=O)c1c(Nc2ccc(I)cc2F)cc(F)cc1Oc1cccc(NS(=O)(=O)C2CC2)c1 [Example 5.36, 2-(3- Cyclopropanesulfonylamino-phenoxy)-4-fluoro-6-(2-fluoro-4-iodo-phenylamino)-benzamide] | 14.5
10 | NC(=O)c1c(Nc2ccc(I)cc2F)cc(F)cc1Oc1cccc(NC(=O)c2ccno2)c1 [Example 5.78, Isoxazole-5-carboxylic acid {3-[2-carbamoyl-5-fluoro-3-(2-fluoro-4-iodo-phenylamino)-phenoxy]-phenyl}-amide] | 86.2
11 | COCCS(=O)(=O)Nc1cccc(Oc2cc(F)cc(Nc3ccc(I)cc3F)c2C(N)=O)c1 [Example 5.95, 4-fluoro-2-[(2-fluoro-4-iodophenyl)amino]-6-(3-{[(2-methoxyethyl)sulfonyl]amino}phenoxy)benzamide] | 25.1

Same assay, conditions: representative example compounds; read-out: IC50 in MEK1 activation kinase assay

Row | Compound | IC50 [nM]
12 | NC(=O)c1c(Nc2ccc(I)cc2F)cc(F)cc1Oc1cccc(NS(=O)(=O)c2c[nH]cn2)c1 [Example 5.49, 4-Fluoro-2-(2-fluoro-4-iodo-phenylamino)-6-[3-(1H-imidazole-4-sulfonylamino)-phenoxy]-benzamide] | < 1000

System: MEK1/2
Experiment: not given
Details: second-generation MEK1/2 inhibitor, reference [17]; cited from earlier work

Row | Compound | IC50
13 | O=C(NOCC1CC1)c1ccc(F)c(F)c1Nc1ccc(I)cc1Cl [PD184352] | low nanomolar range

System: colon cancer
Experiment: not given
Details: oral treatment, mouse models, reference [18]; cited from earlier work

Row | Compound | inhibition of colon cancer growth
14 | O=C(NOCC1CC1)c1ccc(F)c(F)c1Nc1ccc(I)cc1Cl [PD184352] | inhibit colon cancer growth in vivo
